The values that follow are results of earlier work, collected in PubChem BioAssay AID1259410 (Chemical Carcinogenesis Research Information System (CCRIS), 2018).

The test system of this series is rodent tumor promotion studies, tumor incidence. Briefly: CCRIS tumor promotion studies.

Take `CC(C)(C)CC(C)(C)c1ccc(O)cc1`: the outcome runs as follows: (Carcinogen: N-ETHYL-N'-NITRO-N-NITROSOGUANIDINE, 4245-77-6, Doses [Carcinogen]: 20 MG/KG BW ONCE AT 3 MO OF AGE, Doses [Promoter]: 100 MG/KG BW IN DMSO BEGINNING AT 3 MO OF AGE, 5X/WK FOR FIRST 2 WK, 3X/WK FOR NEXT 11 WK, 2X/WK FOR STUDY DURATION (STU, Route [Carcinogen]: INTRAUTERINE, Route [Promoter]: SUBCUTANEOUS, Species: RAT, Strain/Sex: DONRYU/FEMALE) “uterus: adenocarcinoma”; (Doses [Carcinogen]: 20 MG/KG ONCE AT 11 WK OF AGE, Doses [Promoter]: 0, 100 MG/KG/D IN DMSO, EVERY OTHER DAY POSTNATAL DAYS 1 THROUGH 5 (STUDY DURATION: 15 MO), Route [Carcinogen]: INTRAUTERINE, Route [Promoter]: SUBCUTANEOUS, Species: RAT, Strain/Sex: DONRYU/FEMALE) “uterus: adenocarcinoma”; (Doses [Carcinogen]: 20 MG/KG ONCE AT 11 WK OF AGE, Doses [Promoter]: 0, 100 MG/KG/D IN DMSO, EVERY OTHER DAY POSTNATAL DAYS 1 THROUGH 15 (STUDY DURATION: 15 MO), Route [Carcinogen]: INTRAUTERINE, Route [Promoter]: SUBCUTANEOUS, Species: RAT, Strain/Sex: DONRYU/FEMALE) “uterus: adenocarcinoma”.
For `C#CCN(C)Cc1ccccc1`, the outcome (Carcinogen: AZOXYMETHANE, 25843-45-2, Doses [Carcinogen]: 7.4 MG/KG BW IN 0.9% SALINE 1/WK FOR 10 WK, Doses [Promoter]: 0, 50 MG/KG BW 1/2 D FOR 35 WK (STUDY DURATION: 35 WK), Route [Carcinogen]: SUBCUTANEOUS, Route [Promoter]: SUBCUTANEOUS, Species: RAT, Strain/Sex: WISTAR/MALE) was “colon: tumor”.
In the case of `CCCCCCCCC1=C(CCCCCCCC(=O)OC)C1`, where the note is “Doses [Carcinogen]: DIET, Doses [Promoter]: DIET, Route [Carcinogen]: ORAL, Route [Promoter]: ORAL, Species: FISH, Strain/Sex: RAINBOW TROUT/MALE,FEMALE”, the outcome is on record as “liver”.
In the case of `CCCCN(CCCC)N=O`, the outcome was “esophagus: papilloma, squamous cell carcinoma; tongue: papilloma” (Carcinogen: DIETHYLNITROSAMINE, 55-18-5, N-METHYLNITROSOUREA, 684-93-3, DIHYDROXY-DI-N- PROPYLNITROSAMINE, 53609-64-6, Carcinogen: DIETHYLNITROSAMINE, 55-18-5, N-METHYLNITROSOUREA, 684-93-3, DIHYDROXY-DI-N- PROPYLNITROSAMINE, 53609-64-6, Doses [Carcinogen]: 100 MG/KG IN SALINE AT BEGINNING OF STUDY, 20 MG/KG IN CITRATE BUFFERED SOLUTION ON D 2, 5, 8 AND 11, 0.1% IN DRINKING, Doses [Carcinogen]: 100 MG/KG IN SALINE AT BEGINNING OF STUDY, 20 MG/KG IN CITRATE BUFFERED SOLUTION ON D 2, 5, 8 AND 11, 0.1% IN DRINKING, Doses [Promoter]: 0, 50 PPM IN DRINKING WATER BEGINNING POST SEQUENTIAL CARCINOGEN TREATMENT AND CONTINUING FOR DURATION OF STUDY (STUDY D, Route [Carcinogen]: IP, IP, ORAL, Route [Carcinogen]: IP, IP, ORAL, Route [Promoter]: ORAL, Species: RAT, Strain/Sex: F344/MALE) and “lung: adenoma; esophagus: papilloma” (Carcinogen: DIETHYLNITROSAMINE, 55-18-5, N-METHYLNITROSOUREA, 684-93-5, DIHYDROXY-DI-N- PROPYLNITROSAMINE, 53609-64-6, Carcinogen: DIETHYLNITROSAMINE, 55-18-5, N-METHYLNITROSOUREA, 684-93-5, DIHYDROXY-DI-N- PROPYLNITROSAMINE, 53609-64-6, Doses [Carcinogen]: 100 MG/KG IN SALINE AT BEGINNING OF STUDY, 20 MG/KG IN CITRATE BUFFERED SOLUTION ON D 2, 5, 8 AND 11, 0.1% IN DRINKING, Doses [Carcinogen]: 100 MG/KG IN SALINE AT BEGINNING OF STUDY, 20 MG/KG IN CITRATE BUFFERED SOLUTION ON D 2, 5, 8 AND 11, 0.1% IN DRINKING, Doses [Promoter]: 0, 50 PPM IN DRINKING WATER BEGINNING POST SEQUENTIAL CARCINOGEN TREATMENT AND CONTINUING FOR DURATION OF STUDY (STUDY D, Route [Carcinogen]: IP, IP, ORAL, Route [Carcinogen]: IP, IP, ORAL, Route [Promoter]: ORAL, Species: RAT, Strain/Sex: F344/MALE).
`S=c1nc[nH]c2nc[nH]c12`: for the setting “Carcinogen: UV IRRADIATION, Doses [Carcinogen]: 0.53 J/CM2 INCREASED BY 20% EVERY 2 WK TO 1.60 J/CM2 AND MAINTAINED AT 1.60 J/CM2 UNTIL DEATH, ADMINISTERED 5 D/WK FOR 1, Doses [Promoter]: 0, 15 UG/G BEGINNING 2 WK POST FIRST CARCINOGEN DOSE ADMINISTERED 2 HR PRIOR TO EACH CARCINOGEN DOSE (STUDY DURATION: 30, Route [Carcinogen]: DERMAL, Route [Promoter]: INTRAPERITONEAL, Species: MOUSE, Strain/Sex: SKH/HRL/FEMALE”, the outcome was “skin: tumor”.
